Tests used:
Format in all cases: cell-based
OCT4 (FKBP-tagged) [1] = molecular target: T1, OCT4 (FKBP-tagged) (Mus musculus, UniProt P20263+Q8C7D2); assay: RNA-seq after OCT4 degradation in OCT4-FKBP ESCs; conditions: dTag 24 hours versus DMSO
T1 construct: an ESC line bearing endogenous knock-in of DNA encoding the FKBP protein fused to OCT4; HA (C); endogenous in cells; host or cells: V6.5 mouse ES cells (Med1-mEGFP background), homozygous Oct4-FKBP knock-in
Protocol: RNA-Seq was performed in the indicated cell line with the indicated treatment, and used to determine expressed genes. RNA was isolated by AllPrep Kit (Qiagen 80204) and stranded polyA selected libraries was prepared using the TruSeq Stranded mRNA Library Prep Kit (Illumina, RS-122-2101) according to manufacturer's protocol and single-end sequenced on a Hi-seq 2500 instrument.
The CRISPR/Cas9 system was used to genetically engineer ESC lines. Target-specific oligonucleotides were cloned into a plasmid carrying a codon-optimized version of Cas9 with GFP (gift from R. Jaenisch). The sequences of the DNA targeted (the protospacer adjacent motif is underlined) are listed in the same table. […]
For analysis, raw reads were aligned to the mm9 revision of the mouse reference genome using hisat2 with default parameters. Gene name-level read count quantification was performed with htseq-count with parameters -I gene_id -stranded=reverse -f bam -m intersection-strict and a GTF containing transcript positions from Refseq, downloaded 6/6/18. Normalized counts, normalized fold-changes, and differential expression p values were determined using DEseq2 using the standard workflow and both replicates of each condition.

OCT4 (FKBP-tagged) [2] = molecular target: T1, OCT4 (FKBP-tagged); assay: Western blot after OCT4 degradation in OCT4 degron line; conditions: dTag versus DMSO
Protocol: Cells were lysed in Cell Lytic M (Sigma-Aldrich C2978) with protease inhibitors (Roche, 11697498001). Lysate was run on a 3%-8% Tris-acetate gel or 10% Bis-Tris gel or 3-8% Bis-Tris gels at 80 V for ˜2 hrs, followed by 120 V until dye front reached the end of the gel. Protein was then wet transferred to a 0.45 μm PVDF membrane (Millipore, IPVH00010) in ice-cold transfer buffer (25 mM Tris, 192 mM glycine, 10% methanol) at 300 mA for 2 hours at 4° C. After transfer the membrane was blocked with 5% non-fat milk in TBS for 1 hour at room temperature, shaking. Membrane was then incubated with 1:1,000 of the indicated antibody (Table S4) diluted in 5% non-fat milk in TBST and incubated overnight at 4° C., with shaking. In the morning, the membrane was washed three times with TBST for 5 minutes at room temperature shaking for each wash. Membrane was incubated with 1:5,000 secondary antibodies for 1 hr at RT and washed three times in TBST for 5 minutes. Membranes were developed with ECL substrate (Thermo Scientific, 34080) and imaged using a CCD camera or exposed using film or with high sensitivity ECL.
The CRISPR/Cas9 system was used to genetically engineer ESC lines. Target-specific oligonucleotides were cloned into a plasmid carrying a codon-optimized version of Cas9 with GFP (gift from R. Jaenisch). […]

OCT4 (FKBP-tagged) [3] = molecular target: T1, OCT4 (FKBP-tagged); assay: MED1 IF with DNA FISH at Nanog after OCT4 degradation; conditions: dTag versus DMSO
Protocol: Immunofluorescence was performed as previously above. After incubating the cells with the secondary antibodies, cells were washed three times in PBS for 5 min at RT, fixed with 4% PFA in PBS for 10 min and washed three times in PBS. Cells were incubated in 70% ethanol, 85% ethanol and then 100% ethanol for 1 minute at RT. Probe hybridization mixture was made mixing 7 μL of FISH Hybridization Buffer (Agilent G9400A), 1 μl of FISH probes (see below for region) and 2 μL of water. 5 μL of mixture was added on a slide and coverslip was placed on top (cell-side toward the hybridization mixture). Coverslip was sealed using rubber cement. Once rubber cement solidified, genomic DNA and probes were denatured at 78° C. for 5 minutes and slides were incubated at 16° C. in the dark O/N. The coverslip was removed from slide and incubated in pre-warmed Wash buffer 1 (Agilent, G9401A) at 73° C. for 2 minutes and in Wash Buffer 2 (Agilent, G9402A) for 1 minute at RT. […]
For analysis of RNA FISH with immunofluorescence custom in-house MATLAB™ scripts were written to process and analyze 3D image data gathered in FISH (RNA/DNA) and IF channels. […] The IF signal centered at FISH foci for each FISH and IF pair are then combined and an average intensity projection is calculated, providing averaged data for IF signal intensity within a l×l square centered at FISH foci. […]

[4] = system: ER LBD-MED1 condensate in U2OS-Lac cells; assay: Live cell imaging of U2OS-Lac cells with endogenously tagged MED1-mEGFP; conditions: after 10 nM B-Estradiol 45 minutes; 10 uM 4-Hydroxytamoxifen, 30 minutes
Protocol: Cells were imaged pre-treatment and 30 minutes after treatment with a 1:1000 dilution of DMSO or 10 uM 4-Hydroxytamoxifen in Estrogen-free DMEM. Quantification was performed in FIJI; the instrument background was subtracted from the average signal intensity in the array, then divided by the instrument background subtracted from an average nuclear signal to yield the normalized signal intensity.

T1 sequence (P20263 with tags, fused parts or gaps): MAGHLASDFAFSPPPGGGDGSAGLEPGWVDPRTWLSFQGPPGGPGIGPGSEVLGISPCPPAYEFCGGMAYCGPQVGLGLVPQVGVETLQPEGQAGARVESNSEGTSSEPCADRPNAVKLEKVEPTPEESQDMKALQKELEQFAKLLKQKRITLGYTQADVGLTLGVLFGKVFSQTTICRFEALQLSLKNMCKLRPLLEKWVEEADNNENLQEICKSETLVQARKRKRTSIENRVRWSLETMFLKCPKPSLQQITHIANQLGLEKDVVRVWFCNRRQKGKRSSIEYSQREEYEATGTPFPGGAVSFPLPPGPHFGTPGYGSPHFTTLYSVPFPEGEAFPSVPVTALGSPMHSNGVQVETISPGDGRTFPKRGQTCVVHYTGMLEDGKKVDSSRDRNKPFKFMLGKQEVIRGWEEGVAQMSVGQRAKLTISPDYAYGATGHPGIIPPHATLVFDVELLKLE
T1 sequence (Q8C7D2 whole entry, the tested form may be a part): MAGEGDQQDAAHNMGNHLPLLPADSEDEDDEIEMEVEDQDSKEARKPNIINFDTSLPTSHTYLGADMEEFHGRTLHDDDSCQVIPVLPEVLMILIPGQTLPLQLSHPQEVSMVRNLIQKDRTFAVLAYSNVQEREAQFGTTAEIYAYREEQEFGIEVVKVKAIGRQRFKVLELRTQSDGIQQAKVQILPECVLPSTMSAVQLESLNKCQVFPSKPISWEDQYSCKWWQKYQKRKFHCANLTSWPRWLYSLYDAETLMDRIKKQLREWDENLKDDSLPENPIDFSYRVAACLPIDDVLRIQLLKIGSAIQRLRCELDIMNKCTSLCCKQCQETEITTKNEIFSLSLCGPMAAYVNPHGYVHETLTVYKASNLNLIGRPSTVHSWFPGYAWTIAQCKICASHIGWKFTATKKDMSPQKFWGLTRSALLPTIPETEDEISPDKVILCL
T1 sequence (Q3U1J4 whole entry partner, the tested form may be a part): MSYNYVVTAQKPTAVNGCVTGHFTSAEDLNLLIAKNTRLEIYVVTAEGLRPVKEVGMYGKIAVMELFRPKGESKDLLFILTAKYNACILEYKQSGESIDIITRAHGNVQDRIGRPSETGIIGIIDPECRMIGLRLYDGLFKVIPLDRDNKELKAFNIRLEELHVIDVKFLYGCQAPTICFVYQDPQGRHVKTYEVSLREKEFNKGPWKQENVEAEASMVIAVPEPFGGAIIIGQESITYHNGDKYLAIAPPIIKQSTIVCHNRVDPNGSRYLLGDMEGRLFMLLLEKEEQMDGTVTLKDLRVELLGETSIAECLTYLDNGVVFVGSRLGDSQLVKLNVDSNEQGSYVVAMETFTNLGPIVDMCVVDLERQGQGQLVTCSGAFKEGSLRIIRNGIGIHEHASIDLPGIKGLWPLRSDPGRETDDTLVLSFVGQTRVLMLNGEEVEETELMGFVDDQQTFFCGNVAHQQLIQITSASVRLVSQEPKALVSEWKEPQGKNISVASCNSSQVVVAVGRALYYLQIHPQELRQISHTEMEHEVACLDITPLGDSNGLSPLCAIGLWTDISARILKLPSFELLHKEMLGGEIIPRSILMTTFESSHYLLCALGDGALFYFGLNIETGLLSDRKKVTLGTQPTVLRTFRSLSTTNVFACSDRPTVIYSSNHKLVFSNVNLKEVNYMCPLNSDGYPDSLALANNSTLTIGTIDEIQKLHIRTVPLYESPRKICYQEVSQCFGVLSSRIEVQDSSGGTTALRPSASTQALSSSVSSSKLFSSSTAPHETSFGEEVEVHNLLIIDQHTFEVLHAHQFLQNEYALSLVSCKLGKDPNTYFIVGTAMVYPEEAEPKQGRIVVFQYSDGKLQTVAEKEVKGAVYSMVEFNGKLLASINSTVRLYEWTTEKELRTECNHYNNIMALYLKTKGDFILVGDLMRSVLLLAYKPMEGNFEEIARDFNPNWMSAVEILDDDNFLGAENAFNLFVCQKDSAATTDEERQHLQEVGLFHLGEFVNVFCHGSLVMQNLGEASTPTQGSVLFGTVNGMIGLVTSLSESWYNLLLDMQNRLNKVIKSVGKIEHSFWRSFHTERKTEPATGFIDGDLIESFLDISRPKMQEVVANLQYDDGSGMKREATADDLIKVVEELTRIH

Row | expression of SE-driven genes (OCT4 (FKBP-tagged) [1]) | reduction in Nanog mRNA levels (OCT4 (FKBP-tagged) [1]) | MED1 protein levels (OCT4 (FKBP-tagged) [2]) | OCT4 protein levels (OCT4 (FKBP-tagged) [2]) | MED1 condensates at Nanog (OCT4 (FKBP-tagged) [3]) | Compound | Effect on ER LBD-MED1 condensate, live cell imaging [4]
1 | concomitantly decreased | 60% | did not affect MED1 levels | reduced OCT4 protein levels | reduction in MED1 condensates at Nanog | CC[C@H](C(=O)N1CCCC[C@H]1C(=O)O[C@H](CCc1ccc(OC)c(OC)c1)c1ccccc1OCC(=O)NCCCCCCCCNc1ccc2c(c1)C(=O)N(C1CCC(=O)NC1=O)C2=O)c1cc(OC)c(OC)c(OC)c1 (stereo partly drawn) [dTag] | 
2 |  |  |  |  |  | CC/C(=C(\c1ccccc1)c1ccc(OCCN(C)C)cc1)c1ccccc1 [tamoxifen] | dissolves the ER LBD-MED1 condensate

— patent US20220120736A1, “METHODS AND ASSAYS FOR MODULATING GENE TRANSCRIPTION BY MODULATING CONDENSATES” (Whitehead Institute for Biomedical Research, priority 2018, published 2022)
